Data on 49 compounds can be found in ChEMBL document CHEMBL2440096, “Synthesis, structure analysis, antitumor evaluation and 3D-QSAR studies of 3,6-disubstituted-dihydro-1,2,4,5-tetrazine derivatives” (Bioorg Med Chem Lett, 2013).

One assay has as its system A549. Description: Antiproliferative activity against human A549 cells by SRB assay. Format: functional, cell-based.
The test system of the next assay is P388. Description: Antiproliferative activity against mouse P388 cells by MTT assay. In kind it is functional, cell-based.

As to `COc1cc(NC(=O)N2N=C(C)N(C(=O)Nc3cc(OC)cc(OC)c3)N=C2C)cc(OC)c1`, the IC50 with A549 (read-out: IC50) and with A549 (read-out: pIC50 (converted)) was 0.035 µM in each case.
Regarding `CCOC(=O)N1C(c2ccccc2)=NN=C(c2ccccc2)N1C(=O)OCC`, the IC50 stood at 26.6 µM in the assay with A549 (read-out: IC50) and 11.2 µM with P388.
Taken in the same sequence, the figures for `COC(=O)N1C(c2ccccc2)=NN=C(c2ccccc2)N1C(=O)OC` were above 100 µM and above 100 µM.
Consider `c1ccc(C2=NNC(c3ccccc3)=NN2)cc1`, for which the IC50 in the assay with A549 (read-out: IC50) and with A549 (read-out: pIC50 (converted)) was 19.9 µM each time.
Consider `CC1=NN(C(=O)Nc2cccc(C)c2)C(C)=NN1C(=O)Nc1cccc(C)c1`, for which the IC50 with A549 (read-out: IC50) and in the assay on A549 (read-out: pIC50 (converted)) was 0.574 µM in each case.
Consider `CCCC1=NN(C(=O)Nc2ccccc2)C(CCC)=NN1C(=O)Nc1ccccc1`, for which the IC50 in the assay on A549 (read-out: IC50) and in the assay with A549 (read-out: pIC50 (converted)) was 5.42 µM each time.
`CCCC1=NN(C(=O)Nc2cccc(Cl)c2)C(CCC)=NN1C(=O)Nc1cccc(Cl)c1`: the IC50 with A549 (read-out: IC50) and in the assay on A549 (read-out: pIC50 (converted)) was 1.1 µM throughout.
Take `CC1=NN(C(=O)Nc2cc(C)cc(C)c2)C(C)=NN1C(=O)Nc1cc(C)cc(C)c1`: the IC50 in the assay on A549 (read-out: IC50) and in the assay on A549 (read-out: pIC50 (converted)) was 3.66 µM throughout.
Take `CC(C)C(=O)N1N=C(c2ccccc2)NN=C1c1ccccc1`: the IC50 with A549 (read-out: IC50) and with A549 (read-out: pIC50 (converted)) was 2.22 µM each time.
With `O=C(CCl)N1N=C(c2ccc(C(F)(F)F)cc2)NN=C1c1ccc(C(F)(F)F)cc1`, the IC50 in the assay with A549 (read-out: IC50) and with A549 (read-out: pIC50 (converted)) was 8.53 µM each time.
With `CCC(=O)N1N=C(c2ccc(C(F)(F)F)cc2)NN=C1c1ccc(C(F)(F)F)cc1`, the IC50 is 9.56 µM in the assay on A549 (read-out: IC50) and 9.55 µM in the assay on A549 (read-out: pIC50 (converted)).
With `CC(=O)N1N=C(c2ccccc2)NN=C1c1ccccc1`, the IC50 in the assay with A549 (read-out: IC50) and in the assay on A549 (read-out: pIC50 (converted)) was 44.7 µM throughout.
`O=C(CCl)N1N=C(c2ccccc2)NN=C1c1ccccc1`: the IC50 in the assay on A549 (read-out: IC50) and in the assay with A549 (read-out: pIC50 (converted)) was 1.85 µM throughout.
For the compound `CCC(=O)N1N=C(c2ccccc2)NN=C1c1ccccc1`, the IC50 in the assay on A549 (read-out: IC50) and in the assay with A549 (read-out: pIC50 (converted)) was 48.3 µM each time.
As for `Oc1ccc(Cl)cc1C1=NN=C(c2cc(Cl)ccc2O)NN1`, the IC50 in the assay on A549 (read-out: IC50) and in the assay with A549 (read-out: pIC50 (converted)) was 13.2 µM throughout.
On to `Clc1ccc(C2=NN=C(c3ccc(Cl)cc3)NN2)cc1`, for which the IC50 in the assay on A549 (read-out: IC50) and in the assay with A549 (read-out: pIC50 (converted)) was 51.8 µM each time.
For `CCCCN1N=C(C)N(CCCC)N=C1C`, the IC50 with A549 (read-out: IC50) and with A549 (read-out: pIC50 (converted)) was 68.5 µM throughout.
Regarding `CC1=NN(C(=O)Nc2cccc(O)c2)C(C)=NN1C(=O)Nc1cccc(O)c1`, the IC50 with A549 (read-out: IC50) and in the assay with A549 (read-out: pIC50 (converted)) was 5.55 µM each time.
`CC1=NN(C(=O)Nc2ccccc2O)C(C)=NN1C(=O)Nc1ccccc1O`: the IC50 in the assay on A549 (read-out: IC50) and with A549 (read-out: pIC50 (converted)) was 57.3 µM each time.
As to `COc1ccccc1NC(=O)N1N=C(c2ccccc2)NN=C1c1ccccc1`, the IC50 with A549 (read-out: IC50) and with A549 (read-out: pIC50 (converted)) was 44.9 µM each time.
For the compound `COC(=O)N1N=C(c2cccc(Cl)c2)N(C(=O)OC)N=C1c1cccc(Cl)c1`, the IC50 with A549 (read-out: IC50) is 89 µM; with A549 (read-out: pIC50 (converted)), 88.9 µM.
Taken in the same sequence, the figures for `COC(=O)N1N=C(c2cccc([N+](=O)[O-])c2)N(C(=O)OC)N=C1c1cccc([N+](=O)[O-])c1` were 83.6 µM and 83.6 µM.
The corresponding values for `COC(=O)N1N=C(c2ccc(Cl)cc2)N(C(=O)OC)N=C1c1ccc(Cl)cc1` are 76.7 µM and 76.7 µM.
As to `COC(=O)N1N=C(c2ccc(Cl)cc2Cl)N(C(=O)OC)N=C1c1ccc(Cl)cc1Cl`, the IC50 in the assay with A549 (read-out: IC50) and in the assay with A549 (read-out: pIC50 (converted)) was 79.3 µM in each case.
Regarding `O=S(=O)(c1ccccc1)N1N=C(c2ccccc2)N(S(=O)(=O)c2ccccc2)N=C1c1ccccc1`, the IC50 in the assay with A549 (read-out: IC50) and in the assay on A549 (read-out: pIC50 (converted)) was 74.1 µM each time.
In the case of `O=S(=O)(c1ccccc1)N1N=C(c2ccc(Cl)cc2)N(S(=O)(=O)c2ccccc2)N=C1c1ccc(Cl)cc1`, the IC50 in the assay on A549 (read-out: IC50) and in the assay with A549 (read-out: pIC50 (converted)) was 51.9 µM throughout.
On to `COc1ccc(C2=NN(S(=O)(=O)c3ccccc3)C(c3ccc(OC)cc3)=NN2S(=O)(=O)c2ccccc2)cc1`, for which the values for the IC50 with A549 (read-out: IC50) and with A549 (read-out: pIC50 (converted)) were 58.8 µM and 58.7 µM, respectively.
The corresponding values for `Cc1ccc(S(=O)(=O)N2N=C(c3ccccc3)N(S(=O)(=O)c3ccc(C)cc3)N=C2c2ccccc2)cc1` are 85.8 µM and 85.7 µM.
Taken in the same sequence, the figures for `Clc1ccc(CC2=NNC(Cc3ccc(Cl)cc3)=NN2)cc1` were 51.8 µM and 51.8 µM.
With `CCCOC(=O)N1C(c2ccc(C(F)(F)F)cc2)=NN=C(c2ccc(C(F)(F)F)cc2)N1C(=O)OCCC`, the IC50 in the assay with A549 (read-out: IC50) and with P388 was above 100 µM throughout.
For `O=C(Oc1ccccc1)N1C(c2ccc(C(F)(F)F)cc2)=NN=C(c2ccc(C(F)(F)F)cc2)N1C(=O)Oc1ccccc1`, the IC50 in the assay with A549 (read-out: IC50) amounted to 14.5 µM; with P388 it was 26.6 µM.
Taken in the same sequence, the figures for `O=C(OCC1CCCCC1)N1C(c2ccc(C(F)(F)F)cc2)=NN=C(c2ccc(C(F)(F)F)cc2)N1C(=O)OCC1CCCCC1` were above 100 µM and above 100 µM.
As to `COC(=O)N1N=C(c2ccccc2)NN=C1c1ccccc1`, the IC50 was 39.5 µM with A549 (read-out: IC50), 39.5 µM in the assay on A549 (read-out: pIC50 (converted)) and above 100 µM in the assay with P388.
`CCOC(=O)N1N=C(c2ccccc2)NN=C1c1ccccc1`: the IC50 in the assay on A549 (read-out: IC50) and with P388 was above 100 µM each time.
For the compound `CCCOC(=O)N1N=C(c2ccccc2)NN=C1c1ccccc1`, the IC50 in the assay with A549 (read-out: IC50) and in the assay with P388 was above 100 µM each time.
For `CCCCCOC(=O)N1N=C(c2ccccc2)NN=C1c1ccccc1`, the figures for the IC50 in the assay with A549 (read-out: IC50), with A549 (read-out: pIC50 (converted)) and with P388 were 40.8 µM, 40.8 µM and 11.8 µM, respectively.
As for `CC(C)CCOC(=O)N1N=C(c2ccccc2)NN=C1c1ccccc1`, the IC50 is 44.2 µM with A549 (read-out: IC50), 44.2 µM with A549 (read-out: pIC50 (converted)) and 24.6 µM in the assay with P388.
On to `O=C(OCCCl)N1N=C(c2ccccc2)NN=C1c1ccccc1`, for which the values for the IC50 in the assay on A549 (read-out: IC50) and in the assay on P388 were 101 µM and above 100 µM, respectively.
As to `CCOC(=O)N1N=C(c2ccc(C(F)(F)F)cc2)NN=C1c1ccc(C(F)(F)F)cc1`, the IC50 in the assay on A549 (read-out: IC50) is 0.575 µM; with A549 (read-out: pIC50 (converted)) it was 0.575 µM; in the assay on P388, 24.7 µM.
In the case of `COC(=O)N1N=C(c2ccc(Cl)cc2)NN=C1c1ccc(Cl)cc1`, the IC50 was 49.4 µM in the assay on A549 (read-out: IC50), 49.4 µM in the assay with A549 (read-out: pIC50 (converted)) and 34.9 µM in the assay on P388.
As for `O=C(OCC1CCCCC1)N1C(c2ccccc2)=NN=C(c2ccccc2)N1C(=O)OCC1CCCCC1`, the IC50 with A549 (read-out: IC50) and in the assay with P388 was above 100 µM in each case.
For the compound `COC(=O)N1C(c2ccc(C(F)(F)F)cc2)=NN=C(c2ccc(C(F)(F)F)cc2)N1C(=O)OC`, the figures for the IC50 in the assay on A549 (read-out: IC50) and in the assay with P388 were 2.08 µM and 30.4 µM, respectively.
Take `CCOC(=O)N1C(c2ccc(C(F)(F)F)cc2)=NN=C(c2ccc(C(F)(F)F)cc2)N1C(=O)OCC`: the IC50 with A549 (read-out: IC50) was 51.1 µM; in the assay with P388 it was above 100 µM.
In the case of `CCCC1=NN(C(=O)Nc2cccc(C)c2)C(CCC)=NN1C(=O)Nc1cccc(C)c1`, the IC50 in the assay on A549 (read-out: IC50) and in the assay on A549 (read-out: pIC50 (converted)) was 1 µM each time.
`CCC1=NN(C(=O)Nc2cccc(C)c2)C(CC)=NN1C(=O)Nc1cccc(C)c1`: the IC50 in the assay with A549 (read-out: IC50) is 0.639 µM; with A549 (read-out: pIC50 (converted)), 0.64 µM.
Take `CCCOC(=O)N1C(c2ccccc2)=NN=C(c2ccccc2)N1C(=O)OCCC`: the IC50 with A549 (read-out: IC50) was above 100 µM; with P388, 11.7 µM.
Consider `CC(C)C(=O)N1N=C(c2ccc(C(F)(F)F)cc2)NN=C1c1ccc(C(F)(F)F)cc1`, for which the IC50 in the assay with A549 (read-out: IC50) and in the assay with A549 (read-out: pIC50 (converted)) was 31.6 µM throughout.
As for `CC(=O)N1N=C(c2ccc(C(F)(F)F)cc2)NN=C1c1ccc(C(F)(F)F)cc1`, the IC50 in the assay with A549 (read-out: IC50) is 9.76 µM; in the assay with A549 (read-out: pIC50 (converted)), 9.75 µM.
As to `FC(F)(F)c1ccc(C2=NN=C(c3ccc(C(F)(F)F)cc3)NN2)cc1`, the IC50 with A549 (read-out: IC50) and in the assay on A549 (read-out: pIC50 (converted)) was 40 µM each time.
